{
  "source": "patent US6629835B2",
  "about": "“Combinations of diterpene triepoxide lactones and ditepene lactones or triterpenes for synergistic inhibition of cyclooxygenase-2” (MetaProteomics, LLC, priority 2000, dated 2003)",
  "origin": "cited, not measured here",
  "details": "gastrointestinal disturbance, nausea and vomiting, hypotension, edema; cited from earlier work",
  "data": [
    {"smiles": "CC(C)[C@]12O[C@H]1[C@@H]1O[C@]13[C@]1(O[C@H]1C[C@H]1C4=C(CC[C@@]13C)C(=O)OC4)[C@@H]2O", "note": "[Triptolide]", "values": [
      {"measurement": "Patients showing some type of side effects", "value": "Approximately 28%"}
    ]}
  ]
}
